Laboratory results as given in ChEMBL document CHEMBL2440076, “New triarylpyrazoles as broad-spectrum anticancer agents: design, synthesis, and biological evaluation” (Eur J Med Chem, 2013).

Tests used:
Type in all cases: functional
OVCAR-8 = assay: Growth inhibition of human OVCAR8 cells assessed as cell growth at 5X10'-5 M after 48 hrs by sulforhodamine B assay; conditions: OVCAR-8, 48 h, read-out: Activity
NCI-H322M [1] = assay: Growth inhibition of human NCI-H322M cells assessed as cell growth at 5X10'-9 M after 48 hrs by sulforhodamine B assay; conditions: read-out: Activity
HOP-62 [2] = assay: Growth inhibition of human HOP62 cells assessed as cell growth at 5X10'-6 M after 48 hrs by sulforhodamine B assay; conditions: HOP-62, 48 h, read-out: Activity
HCT-116 [3] = assay: Growth inhibition of human HCT116 cells assessed as cell growth at 5X10'-7 M after 48 hrs by sulforhodamine B assay; conditions: HCT-116, 48 h, read-out: Activity
MDA-MB-435 = assay: Growth inhibition of human MDA-MB-435 cells assessed as cell growth at 5X10'-8 M after 48 hrs by sulforhodamine B assay; conditions: MDA-MB-435, 48 h, read-out: Activity
HT-29 [4] = assay: Growth inhibition of human HT-29 cells assessed as cell growth at 5X10'-5 M after 48 hrs by sulforhodamine B assay; conditions: HT-29, 48 h, read-out: Activity
OVCAR-4 = assay: Growth inhibition of human OVCAR4 cells assessed as cell growth at 5X10'-8 M after 48 hrs by sulforhodamine B assay; conditions: OVCAR-4, 48 h, read-out: Activity
UACC-62 [5] = assay: Growth inhibition of human UACC62 cells assessed as cell growth at 5X10'-8 M after 48 hrs by sulforhodamine B assay; conditions: UACC-62, 48 h, read-out: Activity
MDA-MB-231 = assay: Growth inhibition of human MDA-MB-231 cells assessed as cell growth at 5X10'-8 M after 48 hrs by sulforhodamine B assay; conditions: MDA-MB-231, 48 h, read-out: Activity
HOP-62 [6] = assay: Growth inhibition of human HOP62 cells assessed as cell growth at 5X10'-7 M after 48 hrs by sulforhodamine B assay; conditions: HOP-62, 48 h, read-out: Activity
NCI-H322M [7] = assay: Growth inhibition of human NCI-H322M cells assessed as cell growth at 5X10'-5 M after 48 hrs by sulforhodamine B assay; conditions: read-out: Activity
MDA-MB-468 = assay: Growth inhibition of human MDA-MB-468 cells assessed as cell growth at 5X10'-6 M after 48 hrs by sulforhodamine B assay; conditions: MDA-MB-468, 48 h, read-out: Activity
SK-MEL-28 = assay: Growth inhibition of human SK-MEL-28 cells assessed as cell growth at 5X10'-9 M after 48 hrs by sulforhodamine B assay; conditions: SK-MEL-28, 48 h, read-out: Activity
HT-29 [8] = assay: Growth inhibition of human HT-29 cells assessed as cell growth at 5X10'-9 M after 48 hrs by sulforhodamine B assay; conditions: HT-29, 48 h, read-out: Activity
IGROV-1 = assay: Growth inhibition of human IGROV1 cells assessed as cell growth at 5X10'-9 M after 48 hrs by sulforhodamine B assay; conditions: IGROV-1, 48 h, read-out: Activity
NCI-H322M [9] = assay: Growth inhibition of human NCI-H322M cells assessed as cell growth at 5X10'-6 M after 48 hrs by sulforhodamine B assay; conditions: read-out: Activity
HCT-116 [10] = assay: Growth inhibition of human HCT116 cells assessed as cell growth at 5X10'-5 M after 48 hrs by sulforhodamine B assay; conditions: HCT-116, 48 h, read-out: Activity
SNB-19 = assay: Growth inhibition of human SNB19 cells assessed as cell growth at 5X10'-6 M after 48 hrs by sulforhodamine B assay; conditions: SNB-19, 48 h, read-out: Activity
SF-268 = assay: Growth inhibition of human SF268 cells assessed as cell growth at 5X10'-5 M after 48 hrs by sulforhodamine B assay; conditions: SF-268, 48 h, read-out: Activity
RXF 393 = assay: Growth inhibition of human RXF393 cells assessed as cell growth at 5X10'-5 M after 48 hrs by sulforhodamine B assay; conditions: RXF 393, 48 h, read-out: Activity
A549 = assay: Growth inhibition of human A549/ATCC cells assessed as cell growth at 5X10'-9 M after 48 hrs by sulforhodamine B assay; conditions: A549, 48 h, read-out: Activity
HOP-92 = assay: Growth inhibition of human HOP92 cells assessed as cell growth at 5X10'-8 M after 48 hrs by sulforhodamine B assay; conditions: HOP-92, 48 h, read-out: Activity
SF-295 [11] = assay: Growth inhibition of human SF295 cells assessed as cell growth at 5X10'-6 M after 48 hrs by sulforhodamine B assay; conditions: SF-295, 48 h, read-out: Activity
HCT-15 [12] = assay: Growth inhibition of human HCT15 cells assessed as cell growth at 5X10'-9 M after 48 hrs by sulforhodamine B assay; conditions: HCT-15, 48 h, read-out: Activity
SF-295 [13] = assay: Growth inhibition of human SF295 cells assessed as cell growth at 5X10'-7 M after 48 hrs by sulforhodamine B assay; conditions: SF-295, 48 h, read-out: Activity
NCI-H460 = assay: Growth inhibition of human NCI-H460 cells assessed as cell growth at 5X10'-6 M after 48 hrs by sulforhodamine B assay; conditions: NCI-H460, 48 h, read-out: Activity
LOX IMVI = assay: Growth inhibition of human LOXIMVI cells assessed as cell growth at 5X10'-8 M after 48 hrs by sulforhodamine B assay; conditions: read-out: Activity
SNB-75 = assay: Growth inhibition of human SNB75 cells assessed as cell growth at 5X10'-5 M after 48 hrs by sulforhodamine B assay; conditions: SNB-75, 48 h, read-out: Activity
MOLT-4 = assay: Growth inhibition of human MOLT4 cells assessed as cell growth at 5X10'-9 M after 48 hrs by sulforhodamine B assay; conditions: MOLT-4, 48 h, read-out: Activity
UACC-62 [14] = assay: Growth inhibition of human UACC62 cells assessed as cell growth at 5X10'-7 M after 48 hrs by sulforhodamine B assay; conditions: UACC-62, 48 h, read-out: Activity
COLO 205 = assay: Growth inhibition of human COLO205 cells assessed as cell growth at 5X10'-9 M after 48 hrs by sulforhodamine B assay; conditions: COLO 205, 48 h, read-out: Activity
K562 = assay: Growth inhibition of human K562 cells assessed as cell growth at 5X10'-8 M after 48 hrs by sulforhodamine B assay; conditions: K562, 48 h, read-out: Activity
HCT-15 [15] = assay: Growth inhibition of human HCT15 cells assessed as cell growth at 5X10'-6 M after 48 hrs by sulforhodamine B assay; conditions: HCT-15, 48 h, read-out: Activity
OVCAR-5 = assay: Growth inhibition of human OVCAR5 cells assessed as cell growth at 5X10'-7 M after 48 hrs by sulforhodamine B assay; conditions: OVCAR-5, 48 h, read-out: Activity
HCT-15 [16] = assay: Growth inhibition of human HCT15 cells assessed as cell growth at 5X10'-7 M after 48 hrs by sulforhodamine B assay; conditions: HCT-15, 48 h, read-out: Activity
786-0 = assay: Growth inhibition of human 786-0 cells assessed as cell growth at 5X10'-7 M after 48 hrs by sulforhodamine B assay; conditions: 786-0, 48 h, read-out: Activity

Q: For `O=C(Nc1cccc(-n2cc(-c3ccncc3)c(-c3ccc(Cl)c(O)c3)n2)c1)Nc1cc(C(F)(F)F)cc(C(F)(F)F)c1`, which growth at 50 µM (OVCAR-8) is on record?
A: Its growth at 50 µM is -53%.

Q: What about the growth at 0.005 µM (NCI-H322M [1]) of the same compound?
A: Its growth at 0.005 µM is 108%.

Q: What about the growth at 5 µM (HOP-62 [2]) of the same compound?
A: The growth at 5 µM was -64%.

Q: What about the growth at 0.5 µM (HCT-116 [3]) of the same compound?
A: The growth at 0.5 µM was 46%.

Q: What about the growth at 0.05 µM (MDA-MB-435) of the same compound?
A: Its growth at 0.05 µM is 96%.

Q: And the growth at 50 µM (HT-29 [4])?
A: Its growth at 50 µM is -90%.

Q: And the growth at 0.05 µM (OVCAR-4)?
A: Its growth at 0.05 µM is 95%.

Q: And the growth at 0.05 µM (UACC-62 [5])?
A: Its growth at 0.05 µM is 92%.

Q: And the growth at 0.05 µM (MDA-MB-231)?
A: The growth at 0.05 µM was 92%.

Q: And the growth at 0.5 µM (HOP-62 [6])?
A: The growth at 0.5 µM was 96%.

Q: And the growth at 50 µM (NCI-H322M [7])?
A: Its growth at 50 µM is -75%.

Q: And the growth at 5 µM (MDA-MB-468)?
A: Its growth at 5 µM is -14%.

Q: And the growth at 0.005 µM (SK-MEL-28)?
A: Its growth at 0.005 µM is 101%.

Q: What about the growth at 0.005 µM (HT-29 [8]) of the same compound?
A: Its growth at 0.005 µM is 110%.

Q: And the growth at 0.005 µM (IGROV-1)?
A: Its growth at 0.005 µM is 108%.

Q: What about the growth at 5 µM (NCI-H322M [9]) of the same compound?
A: Its growth at 5 µM is 3%.

Q: And the growth at 50 µM (HCT-116 [10])?
A: Its growth at 50 µM is -96%.

Q: What about the growth at 5 µM (SNB-19) of the same compound?
A: The growth at 5 µM was 16%.

Q: What about the growth at 50 µM (SF-268) of the same compound?
A: Its growth at 50 µM is -65%.

Q: And the growth at 50 µM (RXF 393)?
A: The growth at 50 µM was -79%.

Q: What about the growth at 0.005 µM (A549) of the same compound?
A: The growth at 0.005 µM was 96%.

Q: What about the growth at 0.05 µM (HOP-92) of the same compound?
A: The growth at 0.05 µM was 75%.

Q: And the growth at 5 µM (SF-295 [11])?
A: The growth at 5 µM was -57%.

Q: What about the growth at 0.005 µM (HCT-15 [12]) of the same compound?
A: The growth at 0.005 µM was 98%.

Q: And the growth at 0.5 µM (SF-295 [13])?
A: The growth at 0.5 µM was 61%.

Q: And the growth at 5 µM (NCI-H460)?
A: Its growth at 5 µM is -51%.

Q: What about the growth at 0.05 µM (LOX IMVI) of the same compound?
A: The growth at 0.05 µM was 100%.

Q: What about the growth at 50 µM (SNB-75) of the same compound?
A: Its growth at 50 µM is -75%.

Q: And the growth at 0.005 µM (MOLT-4)?
A: Its growth at 0.005 µM is 106%.

Q: And the growth at 0.5 µM (UACC-62 [14])?
A: The growth at 0.5 µM was 69%.

Q: What about the growth at 0.005 µM (COLO 205) of the same compound?
A: Its growth at 0.005 µM is 105%.

Q: And the growth at 0.05 µM (K562)?
A: The growth at 0.05 µM was 108%.

Q: What about the growth at 5 µM (HCT-15 [15]) of the same compound?
A: The growth at 5 µM was -9%.

Q: What about the growth at 0.5 µM (OVCAR-5) of the same compound?
A: The growth at 0.5 µM was 83%.

Q: What about the growth at 0.5 µM (HCT-15 [16]) of the same compound?
A: The growth at 0.5 µM was 49%.

Q: And the growth at 0.5 µM (786-0)?
A: The growth at 0.5 µM was 93%.

Q: What does the source list for `COc1cc(-c2nn(-c3cccc(NC(=O)Nc4ccc(Cl)c(Cl)c4)c3)cc2-c2ccncc2)ccc1Cl`?
A: growth at 50 µM (OVCAR-8): -16%; growth at 0.005 µM (NCI-H322M [1]): 104%; growth at 5 µM (HOP-62 [2]): -1%; growth at 0.5 µM (HCT-116 [3]): 78%; growth at 0.05 µM (MDA-MB-435): 97%; growth at 50 µM (HT-29 [4]): -19%; growth at 0.05 µM (OVCAR-4): 94%; growth at 0.05 µM (UACC-62 [5]): 94%; growth at 0.05 µM (MDA-MB-231): 89%; growth at 0.5 µM (HOP-62 [6]): 93%; growth at 50 µM (NCI-H322M [7]): 6%; growth at 5 µM (MDA-MB-468): -29%; growth at 0.005 µM (SK-MEL-28): 106%; growth at 0.005 µM (HT-29 [8]): 102%; growth at 0.005 µM (IGROV-1): 97%; growth at 5 µM (NCI-H322M [9]): 15%; growth at 50 µM (HCT-116 [10]): 2%; growth at 5 µM (SNB-19): 21%; growth at 50 µM (SF-268): -5%; growth at 50 µM (RXF 393): -43%; growth at 0.005 µM (A549): 98%; growth at 0.05 µM (HOP-92): 64%; growth at 5 µM (SF-295 [11]): -26%; growth at 0.005 µM (HCT-15 [12]): 95%; growth at 0.5 µM (SF-295 [13]): 62%; growth at 5 µM (NCI-H460): 4%; growth at 0.05 µM (LOX IMVI): 101%; growth at 50 µM (SNB-75): -15%; growth at 0.005 µM (MOLT-4): 103%; growth at 0.5 µM (UACC-62 [14]): 75%; growth at 0.005 µM (COLO 205): 109%; growth at 0.05 µM (K562): 103%; growth at 5 µM (HCT-15 [15]): 10%; growth at 0.5 µM (OVCAR-5): 89%; growth at 0.5 µM (HCT-15 [16]): 76%; growth at 0.5 µM (786-0): 89%
